Results as given in patent publication US11649231B2, “Compound as mTOR inhibitor and use thereof” (MEDICINAL BIOCONVERGENCE RESEARCH CENTER, priority 2018, dated 2023).

Each compound was assayed on mTORC1 (assay: mTORC1 activity inhibitory effect at 20 μM, phospho-p70 S6 Kinase Western blot in SW620 cells). Conditions: leucine-free 1 h 30 min, then leucine 15 min, vs DMSO control.
Method: In order to evaluate the inhibitory effect of the compounds according to the present invention on the activity of mTORC1, an experiment was performed in the following manner.

Point of comparison: `O=C1NC(=S)S/C1=C\c1cnn(-c2ccc3ccccc3c2)c1` [Example 1-31, (5Z)-5-[[1-(2-naphthyl)pyrazol-4-yl]methylene]-2-thioxo-thiazolidin-4-one], “mTORC1 inhibitory effect (%)” value 40.20 ± 1.02%. Against it:
- Cn1cc(/C=C2\SC(=S)N(Cc3ccco3)C2=O)cn1 [Example 1-2, (5Z)-3-(2-furylmethyl)-5-[(1-methylpyrazol-4-yl)methylene]-2-thioxo-thiazolidin-4-one] — higher, 74.4 ± 0.2%
- CN1C(=O)/C(=C/c2cnn(-c3ccccc3)c2)SC1=S [Example 1-3, (5Z)-3-methyl-5-[(1-phenylpyrazol-4-yl)methylene]-2-thioxo-thiazolidin-4-one] — higher, 53.97 ± 1.49%
- CCN1C(=O)/C(=C/c2cnn(-c3ccccc3)c2)SC1=S [Example 1-4, (5Z)-3-ethyl-5-[(1-phenylpyrazol-4-yl)methylene]-2-thioxo-thiazolidin-4-one] — higher, 68.36 ± 1.69%
- C=CCN1C(=O)/C(=C/c2cnn(-c3ccccc3)c2)SC1=S [Example 1-5, (5Z)-3-allyl-5-[(1-phenylpyrazol-4-yl)methylene]-2-thioxo-thiazolidin-4-one] — higher, 45.82 ± 3.59%
- CN1C(=O)/C(=C/c2cnn(-c3ccccc3Cl)c2)SC1=S [Example 1-10, (5Z)-5-[[1-(2-chlorophenyl)pyrazol-4-yl]methylene]-3-methyl-2-thioxo-thiazolidin-4-one] — higher, 50.52 ± 3.69%
- CCN1C(=O)/C(=C/c2cnn(-c3ccccc3Cl)c2)SC1=S [Example 1-11, (5Z)-5-[[1-(2-chlorophenyl)pyrazol-4-yl]methylene]-3-ethyl-2-thioxo-thiazolidin-4-one] — higher, 67.22 ± 1.41%
- C=CCN1C(=O)/C(=C/c2cnn(-c3ccccc3Cl)c2)SC1=S [Example 1-12, (5Z)-3-allyl-5-[[1-(2-chlorophenyl)pyrazol-4-yl]methylene]-2-thioxo-thiazolidin-4-one] — higher, 70.93 ± 2.39%
- CN1C(=O)/C(=C/c2cnn(-c3cccc(Cl)c3)c2)SC1=S [Example 1-14, (5Z)-5-[[1-(3-chlorophenyl)pyrazol-4-yl]methylene]-3-methyl-2-thioxo-thiazolidin-4-one] — within error, 46.72 ± 14.22%
- CCN1C(=O)/C(=C/c2cnn(-c3cccc(Cl)c3)c2)SC1=S [Example 1-15, (5Z)-5-[[1-(3-chlorophenyl)pyrazol-4-yl]methylene]-3-ethyl-2-thioxo-thiazolidin-4-one] — higher, 72.46 ± 1.79%
- C=CCN1C(=O)/C(=C/c2cnn(-c3cccc(Cl)c3)c2)SC1=S [Example 1-16, (5Z)-3-allyl-5-[[1-(3-chlorophenyl)pyrazol-4-yl]methylene]-2-thioxo-thiazolidin-4-one] — lower, 3.74 ± 10.43%
- CN1C(=O)/C(=C/c2cnn(-c3ccc(Cl)cc3)c2)SC1=S [Example 1-18, (5Z)-5-[[1-(4-chlorophenyl)pyrazol-4-yl]methylene]-3-methyl-2-thioxo-thiazolidin-4-one] — within error, 50.17 ± 12.77%
- CCN1C(=O)/C(=C/c2cnn(-c3ccc(Cl)cc3)c2)SC1=S [Example 1-19, (5Z)-5-[[1-(4-chlorophenyl)pyrazol-4-yl]methylene]-3-ethyl-2-thioxo-thiazolidin-4-one] — higher, 54.17 ± 8.55%
- Cc1ccc(-n2cc(/C=C3\SC(=S)NC3=O)cn2)cc1 [Example 1-20, (5Z)-5-[[1-(p-tolyl)pyrazol-4-yl]methylene]-2-thioxo-thiazolidin-4-one] — higher, 83.30 ± 1.76%
- Cc1ccc(-n2cc(/C=C3\SC(=S)N(C)C3=O)cn2)cc1 [Example 1-21, (5Z)-3-methyl-5-[[1-(p-tolyl)pyrazol-4-yl]methylene]-2-thioxo-thiazolidin-4-one] — higher, 71.18 ± 5.04%
- CCN1C(=O)/C(=C/c2cnn(-c3ccc(C)cc3)c2)SC1=S [Example 1-22, (5Z)-3-ethyl-5-[[1-(p-tolyl)pyrazol-4-yl]methylene]-2-thioxo-thiazolidin-4-one] — higher, 77.21 ± 0.84%
- C=CCN1C(=O)/C(=C/c2cnn(-c3ccc(C)cc3)c2)SC1=S [Example 1-23, (5Z)-3-allyl-5-[[1-(p-tolyl)pyrazol-4-yl]methylene]-2-thioxo-thiazolidin-4-one] — lower, 15.74 ± 10.22%
- CCN1C(=O)/C(=C/c2cnn(-c3ccc(C(C)C)cc3)c2)SC1=S [Example 1-25, (5Z)-3-ethyl-5-[[1-(4-isopropylphenyl)pyrazol-4-yl]methylene]-2-thioxo-thiazolidin-4-one] — within error, 36.86 ± 3.47%
- CCCCc1ccc(-n2cc(/C=C3\SC(=S)NC3=O)cn2)cc1 [Example 1-26, (5Z)-5-[[1-(4-butylphenyl)pyrazol-4-yl]methylene]-2-thioxo-thiazolidin-4-one] — higher, 59.73 ± 3.55%
- CCCCc1ccc(-n2cc(/C=C3\SC(=S)N(CC)C3=O)cn2)cc1 [Example 1-27, (5Z)-5-[[1-(4-butylphenyl)pyrazol-4-yl]methylene]-3-ethyl-2-thioxo-thiazolidin-4-one] — higher, 51.70 ± 7.12%
- Cc1ccc(-n2cc(/C=C3\SC(=S)NC3=O)cn2)cc1C [Example 1-28, (5Z)-5-[[1-(3,4-dimethylphenyl)pyrazol-4-yl]methylene]-2-thioxo-thiazolidin-4-one] — higher, 47.13 ± 3.15%
- CCN1C(=O)/C(=C/c2cnn(-c3ccc(C)c(C)c3)c2)SC1=S [Example 1-29, (5Z)-5-[[1-(3,4-dimethylphenyl)pyrazol-4-yl]methylene]-3-ethyl-2-thioxo-thiazolidin-4-one] — lower, 4.02 ± 6.64%
- CCN1C(=O)/C(=C/c2cnn(-c3ccc4ccccc4c3)c2)SC1=S [Example 1-32, (5Z)-3-ethyl-5-[[1-(2-naphthyl)pyrazol-4-yl]methylene]-2-thioxo-thiazolidin-4-one] — higher, 75.04 ± 5.32%
- O=C1/C(=C/c2cnn(-c3ccccn3)c2)SC(=S)N1CCO [Example 1-34, (5Z)-3-(2-hydroxyethyl)-5-[[1-(2-pyridyl)pyrazol-4-yl]methylene]-2-thioxo-thiazolidin-4-one] — higher, 82.94 ± 1.10%
- O=C1/C(=C/c2cnn(-c3cccnc3)c2)SC(=S)N1CCO [Example 1-36, (5Z)-3-(2-hydroxyethyl)-5-[[1-(3-pyridyl)pyrazol-4-yl]methylene]-2-thioxo-thiazolidin-4-one] — higher, 80.88 ± 1.10%
- Cc1nn(-c2ccccc2)c(C)c1/C=C1\SC(=S)NC1=O [Example 1-38, (5Z)-5-[(3,5-dimethyl-1-phenyl-pyrazol-4-yl)methylene]-2-thioxo-thiazolidin-4-one] — higher, 75.78 ± 2.60%
- O=C1NC(=O)/C(=C/c2cnn(-c3ccccc3F)c2)S1 [Example 1-40, (5Z)-5-[[1-(2-fluorophenyl)pyrazol-4-yl]methylene]thiazolidine-2,4-dione] — within error, 41.03 ± 0.21%
- O=C1NC(=O)/C(=C/c2cnn(-c3cccc(F)c3)c2)S1 [Example 1-41, (5Z)-5-[[1-(3-fluorophenyl)pyrazol-4-yl]methylene]thiazolidine-2,4-dione] — higher, 49.37 ± 7.34%
- O=C1NC(=O)/C(=C/c2cnn(-c3ccc(F)cc3)c2)S1 [Example 1-42, (5Z)-5-[[1-(4-fluorophenyl)pyrazol-4-yl]methylene]thiazolidine-2,4-dione] — higher, 73.81 ± 2.77%
- O=C1NC(=O)/C(=C/c2cnn(-c3ccccc3Cl)c2)S1 [Example 1-43, (5Z)-5-[[1-(2-chlorophenyl)pyrazol-4-yl]methylene]thiazolidine-2,4-dione] — higher, 52.34 ± 3.97%
- O=C1NC(=O)/C(=C/c2cnn(-c3cccc(Cl)c3)c2)S1 [Example 1-44, (5Z)-5-[[1-(3-chlorophenyl)pyrazol-4-yl]methylene]thiazolidine-2,4-dione] — higher, 50.76 ± 5.28%
- O=C1NC(=O)/C(=C/c2cnn(-c3ccc(Cl)cc3)c2)S1 [Example 1-45, (5Z)-5-[[1-(4-chlorophenyl)pyrazol-4-yl]methylene]thiazolidine-2,4-dione] — higher, 64.18 ± 3.13%
- Cc1ccc(-n2cc(/C=C3\SC(=O)NC3=O)cn2)cc1 [Example 1-46, (5Z)-5-[[1-(p-tolyl)pyrazol-4-yl]methylene]thiazolidine-2,4-dione] — higher, 74.39 ± 0.62%
- CC(C)c1ccc(-n2cc(/C=C3\SC(=O)NC3=O)cn2)cc1 [Example 1-47, (5Z)-5-[[1-(4-isopropylphenyl)pyrazol-4-yl]methylene]thiazolidine-2,4-dione] — higher, 74.36 ± 1.23%
- CCCCc1ccc(-n2cc(/C=C3\SC(=O)NC3=O)cn2)cc1 [Example 1-48, (5Z)-5-[[1-(4-butylphenyl)pyrazol-4-yl]methylene]thiazolidine-2,4-dione] — higher, 69.53 ± 2.04%
- Cc1ccc(-n2cc(/C=C3\SC(=O)NC3=O)cn2)cc1C [Example 1-49, (5Z)-5-[[1-(3,4-dimethylphenyl)pyrazol-4-yl]methylene]thiazolidine-2,4-dione] — higher, 68.36 ± 2.99%
- COc1ccccc1-n1cc(/C=C2\SC(=O)NC2=O)cn1 [Example 1-50, (5Z)-5-[[1-(2-methoxyphenyl)pyrazol-4-yl]methylene]thiazolidine-2,4-dione] — within error, 38.93 ± 16.04%
- O=C1NC(=O)/C(=C/c2cnn(-c3ccc4ccccc4c3)c2)S1 [Example 1-51, (5Z)-5-[[1-(2-naphthyl)pyrazol-4-yl]methylene]thiazolidine-2,4-dione] — higher, 53.08 ± 1.81%
